In general, IC50 refers to the concentration at which inhibition is half-maximal.

Among the data in patent publication US6589972B2, “β-phenylalanine derivatives as integrin antagonists” (Bayer Aktiengesellschaft, priority 1999, dated 2003) are IC50 values, retold here.

Counter-ions that a name gives are not always drawn.

In one experiment the target is αvβ3 receptor (Homo sapiens, UniProt P05106+P06756).
Chain of αvβ3 receptor (P06756 31-889 limits assumed): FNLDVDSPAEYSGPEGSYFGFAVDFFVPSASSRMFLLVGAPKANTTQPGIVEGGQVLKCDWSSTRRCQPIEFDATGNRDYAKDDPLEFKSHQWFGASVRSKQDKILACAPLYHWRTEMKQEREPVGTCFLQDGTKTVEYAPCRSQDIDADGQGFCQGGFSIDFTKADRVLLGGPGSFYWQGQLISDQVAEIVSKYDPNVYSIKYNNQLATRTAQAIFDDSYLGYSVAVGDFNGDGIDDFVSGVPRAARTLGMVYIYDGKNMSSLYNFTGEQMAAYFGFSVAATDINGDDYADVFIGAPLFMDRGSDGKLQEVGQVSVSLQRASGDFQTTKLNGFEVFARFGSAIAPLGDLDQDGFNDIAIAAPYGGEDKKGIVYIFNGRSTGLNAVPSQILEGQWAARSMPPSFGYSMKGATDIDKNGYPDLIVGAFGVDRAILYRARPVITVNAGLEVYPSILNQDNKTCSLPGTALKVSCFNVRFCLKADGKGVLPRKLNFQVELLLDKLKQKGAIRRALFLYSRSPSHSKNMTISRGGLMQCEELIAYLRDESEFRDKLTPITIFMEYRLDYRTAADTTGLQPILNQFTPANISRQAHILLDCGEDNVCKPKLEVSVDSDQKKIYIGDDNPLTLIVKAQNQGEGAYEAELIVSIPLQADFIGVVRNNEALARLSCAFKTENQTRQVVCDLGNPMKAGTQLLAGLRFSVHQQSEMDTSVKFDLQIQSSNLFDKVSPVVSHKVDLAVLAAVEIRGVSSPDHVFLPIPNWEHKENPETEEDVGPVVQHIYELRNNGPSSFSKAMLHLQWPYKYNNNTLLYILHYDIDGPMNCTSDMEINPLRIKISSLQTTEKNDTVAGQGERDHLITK
Chain of αvβ3 receptor (P06756 891-1048 partner limits assumed): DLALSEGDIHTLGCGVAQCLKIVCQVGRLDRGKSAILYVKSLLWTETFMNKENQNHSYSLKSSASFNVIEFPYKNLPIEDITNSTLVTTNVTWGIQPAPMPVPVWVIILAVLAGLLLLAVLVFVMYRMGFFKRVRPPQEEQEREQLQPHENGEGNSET
Chain of αvβ3 receptor (P05106 27-788): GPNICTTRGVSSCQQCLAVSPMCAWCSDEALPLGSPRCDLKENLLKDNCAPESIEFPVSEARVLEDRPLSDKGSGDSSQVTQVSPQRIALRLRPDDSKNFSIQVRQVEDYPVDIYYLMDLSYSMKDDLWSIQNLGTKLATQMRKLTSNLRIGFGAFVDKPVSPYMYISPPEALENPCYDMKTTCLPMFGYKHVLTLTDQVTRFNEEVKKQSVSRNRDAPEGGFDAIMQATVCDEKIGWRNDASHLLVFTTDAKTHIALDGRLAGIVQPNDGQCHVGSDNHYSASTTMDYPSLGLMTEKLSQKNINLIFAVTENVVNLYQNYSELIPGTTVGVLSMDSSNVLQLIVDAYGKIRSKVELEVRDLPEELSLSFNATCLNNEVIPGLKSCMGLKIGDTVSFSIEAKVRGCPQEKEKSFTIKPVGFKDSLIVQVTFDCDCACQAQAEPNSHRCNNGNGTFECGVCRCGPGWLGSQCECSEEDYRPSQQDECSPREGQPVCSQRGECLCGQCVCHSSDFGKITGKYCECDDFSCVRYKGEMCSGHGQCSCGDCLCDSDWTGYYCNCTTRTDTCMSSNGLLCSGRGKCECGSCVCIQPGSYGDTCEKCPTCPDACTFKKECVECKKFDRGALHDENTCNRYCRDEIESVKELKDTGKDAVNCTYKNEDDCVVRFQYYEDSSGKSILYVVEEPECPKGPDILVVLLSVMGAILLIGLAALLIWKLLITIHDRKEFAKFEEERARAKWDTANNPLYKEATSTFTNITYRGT
Experiment: not given
The conditions noted are these: disclosed in WO98/00395; cited from earlier work.
With `CC1(C)C2CCC1(CS(=O)(=O)NC(Cc1ccc(OCCCC(=O)NC(=N)N)cc1)C(=O)O)C(=O)C2` (stereo not shown) [(I)], the IC50 was 0.13 nM.

The next experiment deals with T1, αvβ3 from human A375 cells (Homo sapiens, UniProt P05106+P06756).
T1 construct: αvβ3 from human A375 cells was purified; endogenous in cells; host or cells: human A375 cells; receptor purified from the cells and used detergent-solubilised
T1 sequence (P06756 31-889 limits assumed): as the sequence (P06756 31-889 limits assumed) above
T1 sequence (P06756 891-1048 partner limits assumed): as the sequence (P06756 891-1048 partner limits assumed) above
T1 sequence (P05106 27-788): as the sequence (P05106 27-788) above
Kind of experiment: αvβ3 echistatin SPA binding assay. As to conditions: purified αvβ3, labelled echistatin, WGA SPA beads. The procedure: αvβ3 from human A375 cells was purified analogously to a procedure which was described by Wong et al. (Molecular Pharmacology, 50, 529-537 (1996)). 10 μl of αvβ3 (5 ng) in TBS pH 7.6, 2 mM CaCl2, 1 mM MgCl2, 1% n-octyl glucopyranoside (Sigma); 10 μl of test substance in TBS pH 7.6, 0.1% DMSO and 45 μl of TBS pH 7.6, 2 mM CaCl2, 1 mM MgCl2, 1 mM MnCl2 were in each case incubated at room temperature for 1 h. 25 μl of WGA SPA beads (Amersham, 4 mg/ml) and 10 μl of echistatin (0.1 μCi, Amersham, chloramine T-labelled) were then added in each case. After 16 hours at room temperature, the samples were measured in a scintillation measuring apparatus (Wallac 1450).
For `CCC(C(=O)NC(CC(=O)O)c1cccc(NS(=O)(=O)c2cccc(NC(=N)N)c2)c1)c1ccccc1` (mixture of isomers) [Example 7, 3-(3-[3-Guanidino-benzenesulphonylamino]-phenyl)-3-(2-phenylbutyrylamino)-propionic acid], the IC50 was 115 nM.
On the same count and under the same terms, the same measure for `N=C(N)Nc1cccc(S(=O)(=O)Nc2cccc(C(CC(=O)O)NS(=O)(=O)c3ccccc3)c2)c1` (stereo not shown) [Example 1, 3-Benzenesulphonylamino-3-[3-(3-guanidino-benzenesulphonylamino)-phenyl]-3-propionic acid, trifluoroacetic acid salt]: 19 nM.
Same read-out and setting: the same measure for `N=C(N)Nc1cccc(C(=O)Nc2cccc(C(CC(=O)O)NS(=O)(=O)c3ccccc3)c2)c1` (stereo not shown) [Example 2, 3-Benzenesulphonylamino-3-[3-(3-guanidino-benzoylamino)-phenyl]-propionic acid, trifluoroacetic acid salt]: 390 nM.
As to `Cc1cc(C)c(CC(=O)NC(CC(=O)O)c2cccc(NS(=O)(=O)c3cccc(NC(=N)N)c3)c2)c(C)c1` (stereo not shown) [Example 3, 3-(3-[3-Guanidinobenzenesulphonylamino]-phenyl)-3-(2,4,6-trimethylphenylacetylamino)-propionic acid, trfiluoroacetic acid salt], the IC50 was 153 nM.
For the compound `N=C(N)Nc1cccc(S(=O)(=O)Nc2cccc(C(CC(=O)O)NC(=O)c3ccccc3)c2)c1` (stereo not shown) [Example 4, 3-Benzoylamino-3-[3-(3-guanidino-benzenesulphonylamino)-phenyl]-propionic acid], the IC50 worked out at 12.8 nM.
`N=C(N)Nc1cccc(S(=O)(=O)Nc2cccc(C(CC(=O)O)NC(=O)Cc3ccc(Cl)cc3Cl)c2)c1` (stereo not shown) [Example 5] returned an IC50 of 72.4 nM.
On the same count and under the same terms, the figure for `N=C(N)Nc1cccc(S(=O)(=O)Nc2cccc(C(CC(=O)O)NC(=O)CCc3ccccc3)c2)c1` (stereo not shown) [Example 6, 3-(3-[3-Guanidino-benzenesulphonylamino]-phenyl)-3-phenylpropionylamino-propionic acid] is 36.2 nM; for `N=C(N)Nc1cccc(COc2cccc(C(CC(=O)O)NS(=O)(=O)c3ccccc3)c2)c1` (stereo not shown) [Example 8, 3-Benzenesulphonylamino-3-[3-(3-guanidino-benzyloxy)-phenyl]-propionic acid] it is 33 nM; for `O=C(O)CC(NS(=O)(=O)c1ccccc1)c1cccc(NS(=O)(=O)c2cccc(NC3=NCCN3)c2)c1` (stereo not shown) [Example 9] it is 0.295 nM.
